Data taken from ChEMBL document CHEMBL5321233, “Biological activity of 1,2,3-triazole-2-amino-1,4-naphthoquinone derivatives and their evaluation as therapeutic strategy for malaria control” (Eur J Med Chem, 2023).

Key:
Plasmodium falciparum = assay: Antimalarial activity against chloroquine-resistant Plasmodium falciparum W2 infected in human erythrocytes assessed as parasite growth inhibition incubated for 48 hrs by geimsa staining based microscopy; assay type: functional, organism-based; details: W2, Erythrocyte
HepG2 = assay: Cytotoxicity against human HepG2 cells incubated for 24 hrs by MTT assay; assay type: functional
[1] = Cytotoxicity against African green monkey Vero cells incubated for 24 hrs by MTT assay; assay type: toxicity, cell-based; details: chlorocebus sabaeus
[2] = Selectivity index, ratio of CC50 for human HepG2 cells to IC50 for chloroquine-resistant Plasmodium falciparum W2 infected in human erythrocytes; assay type: toxicity, cell-based; details: read-out: Ratio CC50/IC50
[3] = Selectivity index, ratio of CC50 for African green monkey Vero cells to IC50 for chloroquine-resistant Plasmodium falciparum W2 infected in human erythrocytes; assay type: toxicity, cell-based; details: read-out: Ratio CC50/IC50
[4] = Octanol-water partition coefficient, logP of the compound; assay type: physicochemical
[5] = Hemolytic activity in human red blood cells assessed as hemoglobin release at 250 to 15.6 uM incubated for 60 mins by spectrophotometry; assay type: toxicity, cell-based, Erythrocyte; details: dose 250-15.6 µM, read-out: Activity
[6] = Hemolytic activity in human red blood cells type A assessed as hemoglobin release at 500 to 1000 uM incubated for 60 mins by spectrophotometry; assay type: toxicity, cell-based, Erythrocyte; details: dose 500-1000 µM, read-out: Activity
[7] = Acute toxicity in Albino Swiss mouse assessed as animal mortality at 300 mg/kg, po administered as single dose measured after 14 days; assay type: organism-based; details: in vivo, 336 h, time 14 day
[8] = Acute toxicity in Albino Swiss mouse assessed as signs of toxicity at 300 mg/kg, po administered as single dose measured after 14 days; assay type: organism-based; details: in vivo, 336 h, time 14 day
[9] = Acute toxicity in Albino Swiss mouse assessed as behavioural toxicity at 300 mg/kg, po administered as single dose measured after 14 days; assay type: organism-based; details: in vivo, 336 h, time 14 day
[10] = Acute toxicity in Albino Swiss mouse assessed as change in motor function at 300 mg/kg, po administered as single dose measured after 14 days; assay type: organism-based; details: in vivo, 336 h, time 14 day
[11] = Acute toxicity in Albino Swiss mouse assessed as change in sensory function at 300 mg/kg, po administered as single dose measured after 14 days; assay type: organism-based; details: in vivo, 336 h, time 14 day
[12] = Acute toxicity in Albino Swiss mouse assessed as signs of pallor at 300 mg/kg, po administered as single dose measured after 14 days; assay type: organism-based; details: in vivo, 336 h, time 14 day
[13] = Acute toxicity in Albino Swiss mouse assessed as signs of cyanosis at 300 mg/kg, po administered as single dose measured after 14 days; assay type: organism-based; details: in vivo, 336 h, time 14 day
[14] = Acute toxicity in Albino Swiss mouse assessed as signs of hyperemia at 300 mg/kg, po administered as single dose measured after 14 days; assay type: organism-based; details: in vivo, 336 h, time 14 day
[15] = Acute toxicity in Albino Swiss mouse assessed as change in urination volume at 300 mg/kg, po administered as single dose measured after 14 days; assay type: organism-based; details: in vivo, 336 h, time 14 day
[16] = Acute toxicity in Albino Swiss mouse assessed as change in urine color at 300 mg/kg, po administered as single dose measured after 14 days; assay type: organism-based; details: in vivo, 336 h, time 14 day
[17] = Acute toxicity in Albino Swiss mouse assessed as change in defecation at 300 mg/kg, po administered as single dose measured after 14 days; assay type: organism-based; details: in vivo, 336 h, time 14 day
[18] = Acute toxicity in Albino Swiss mouse assessed as change in diarrhea at 300 mg/kg, po administered as single dose measured after 14 days; assay type: organism-based; details: in vivo, 336 h, time 14 day
[19] = Acute toxicity in Albino Swiss mouse assessed as contortions at 300 mg/kg, po administered as single dose measured after 14 days; assay type: organism-based; details: in vivo, 336 h, time 14 day
[20] = Acute toxicity in Albino Swiss mouse assessed as escape reaction at 300 mg/kg, po administered as single dose measured after 14 days; assay type: organism-based; details: in vivo, 336 h, time 14 day
[21] = Acute toxicity in Albino Swiss mouse assessed as aggressiveness at 300 mg/kg, po administered as single dose measured after 14 days; assay type: organism-based; details: in vivo, 336 h, time 14 day
[22] = Acute toxicity in Albino Swiss mouse assessed as change in relative weight of liver at 300 mg/kg, po administered as single dose measured after 14 days; assay type: organism-based; details: in vivo, 336 h, time 14 day
[23] = Acute toxicity in Albino Swiss mouse assessed as change in relative weight of kidney at 300 mg/kg, po administered as single dose measured after 14 days; assay type: organism-based; details: in vivo, 336 h, time 14 day
[24] = Acute toxicity in Albino Swiss mouse assessed as change in relative weight of spleen at 300 mg/kg, po administered as single dose measured after 14 days; assay type: organism-based; details: in vivo, 336 h, time 14 day
Plasmodium berghei = assay: Antimalarial activity against Plasmodium berghei ANKA infected in Albino Swiss mouse assessed as half-survival time at 30 mg/kg, po administered for 4 consecutive days measured for 30 days (reference value: 16 day); assay type: functional; details: time 30 day
[25] = Toxicity in Albino Swiss mouse infected with Plasmodium berghei ANKA assessed as mortality rate at 30 mg/kg, po administered for 4 consecutive days measured for 14 days relative to control; assay type: organism-based; details: in vivo, time 14 day, read-out: Activity

Work on `Cc1ccc(-c2cn(CCNC3=CC(=O)c4ccccc4C3=O)nn2)cc1` yielded an IC50 (Plasmodium falciparum) of 15.1 µM, a CC50 (HepG2) of 104 µM and a CC50 at 24 h [1] of 207 µM. It also gave a selectivity ratio [2] of 6.88, a selectivity ratio [3] of 13.7 and a logP [4] of 3.12. For the same compound, the hemolysis at 1 h [5] was less than 40%, the hemolysis at 1 h, up to 1000 µM [6] was greater than 40% and the Activity [7] was “Non-Toxic”. For the same compound, the Activity [8] was “Non-Toxic”, the Activity [9] was “Non-Toxic” and the Activity [10] was “Non-Toxic”. For the same compound, the Activity [11] was “Non-Toxic”, the Activity [12] was “Non-Toxic” and the Activity [13] was “Non-Toxic”. The Activity [14] was “Non-Toxic”, the Activity [15] was “Non-Toxic” and the Activity [16] was “Non-Toxic”. The Activity [17] was “Non-Toxic”, the Activity [18] was “Non-Toxic” and the Activity [19] was “Non-Toxic”. The Activity [20] was “Non-Toxic”, the Activity [21] was “Non-Toxic” and the Activity [22] was “Non-Toxic”. The Activity [23] was “Non-Toxic”, the Activity [24] was “Non-Toxic” and the Survival (Plasmodium berghei) was 14 days. The mortality at 336 h [25] was 100%.
For `CC(C)(O)c1cn(CCNC2=CC(=O)c3ccccc3C2=O)nn1`, the IC50 (Plasmodium falciparum) was 6.6 µM, the CC50 (HepG2) was 233 µM and the CC50 at 24 h [1] was 188 µM. For the same compound, the selectivity ratio [2] was 35.3, the selectivity ratio [3] was 28.5 and the logP [4] was 1.38. For the same compound, the hemolysis at 1 h [5] was less than 40%, the hemolysis at 1 h, up to 1000 µM [6] was greater than 40% and the Activity [7] was “Non-Toxic”. For the same compound, the Activity [8] was “Non-Toxic”, the Activity [9] was “Non-Toxic” and the Activity [10] was “Non-Toxic”. The Activity [11] was “Non-Toxic”, the Activity [12] was “Non-Toxic” and the Activity [13] was “Non-Toxic”. For the same compound, the Activity [14] was “Non-Toxic”, the Activity [15] was “Non-Toxic” and the Activity [16] was “Non-Toxic”. The Activity [17] was “Non-Toxic”, the Activity [18] was “Non-Toxic” and the Activity [19] was “Non-Toxic”. For the same compound, the Activity [20] was “Non-Toxic”, the Activity [21] was “Non-Toxic” and the Activity [22] was “Non-Toxic”. For the same compound, the Activity [23] was “Non-Toxic”, the Activity [24] was “Non-Toxic” and the Survival (Plasmodium berghei) was 14 days.
With `O=C1C=C(NCCn2cc(-c3ccccc3)nn2)C(=O)c2ccccc21` the IC50 (Plasmodium falciparum) was 0.81 µM, the CC50 (HepG2) was 278 µM and the CC50 at 24 h [1] was 116 µM. The selectivity ratio [2] was 343, the selectivity ratio [3] was 143 and the logP [4] was 2.67. The hemolysis at 1 h [5] was less than 40%, the hemolysis at 1 h, up to 1000 µM [6] was greater than 40% and the Activity [7] was “Non-Toxic”. The Activity [8] was “Non-Toxic”, the Activity [9] was “Non-Toxic” and the Activity [10] was “Non-Toxic”. The Activity [11] was “Non-Toxic”, the Activity [12] was “Non-Toxic” and the Activity [13] was “Non-Toxic”. The Activity [14] was “Non-Toxic”, the Activity [15] was “Non-Toxic” and the Activity [16] was “Non-Toxic”. For the same compound, the Activity [17] was “Non-Toxic”, the Activity [18] was “Non-Toxic” and the Activity [19] was “Non-Toxic”. The Activity [20] was “Non-Toxic”, the Activity [21] was “Non-Toxic” and the Activity [22] was “Non-Toxic”. The Activity [23] was “Non-Toxic”, the Activity [24] was “Non-Toxic” and the Survival (Plasmodium berghei) was 13 days.
